Experimental findings from patent US7217564B2, “Cytotoxic assay and new established cell line of sturgeon origin” (priority 2002, dated 2007) are described below.

One assay deals with STIP-1 cells. The experiment in a line: cells. Format: cell-based, Bester (Huso huso X Acipenser ruthenus). Particulars: for EC50: read-out: EC50 (toxicity concentration value which effects on 50% of the cells); for toxicity ranking to the STIP-1 cells: within the tested series (nine heavy metals / twelve phenols). The text has this: (§1) The Alamar Blue assay is one of the bioassay methods being developed to measure the cellular metabolisms of the animal cells or the like. The Alamar Blue pigment is an oxidation-reduction pigment which should be incorporated in a cell for its reduction. The Alamar Blue pigment has the characteristics to be changed from an oxidation type (non-fluorescence/blue) to a reduction type (fluorescence/red) by the reduction reaction of the respiratory metabolism system done in mitochondria. If the cellular metabolism is normal, the reduction reaction proceeds in normal. On the other hand, if the cellular metabolism becomes abnormal, the oxidation type is remained as it is. Therefore, the abnormality of a cellular metabolism can be determined by measuring the change in color. Furthermore, the measurement of a cellular metabolism may be based on the fluorescence and the light absorption. In this case the fluorescence is monitored by an excitation wavelength of 530 nm to 560 nm and a detection wavelength of 590 nm, and the light absorption is monitored at wavelengths of 570 nm and 600 nm.
Cells were cultured in a 96-well microtiter plate in a CO2 incubator (air atmosphere) at 20° C. until it became confluent. The culture was performed using a culture medium prepared by adding 10% fetal bovine serum (FBS) (manufactured by Gibco Co., Ltd.), penicillin (10 unit/ml) and streptomycin (50 μg/ml) in a Leibovitz's L15 culture medium (manufactured by Gibco Co., Ltd.).
A 0.2M aqueous solution of a specimen (cadmium chloride, CdCl2.2H2O) was prepared and was then sterilized by passing through a filter of 0.2 μm in pore size to be preserved at 4° C. […] For a comparison example, the culture medium in the absence of the specimen was inoculated in a well. After 24 hours passed, an Alamar Blue pigment was added and an additional culture was continued for further 24 hours.
Subsequently, by using a microplate reader, the light absorbance of each well was measured using two wavelengths (570 nm and 600 nm). The inhibition value of a cellular metabolism with the cadmium aqueous solution was measured as a reduction rate of a well (a sample) inoculated with a cadmium aqueous solution to a well only containing the culture medium as a control. The calculation was performed using the following equation.
A=sample well (A570 nm−A600 nm)−blank well (A570 nm−A600 nm), and
B=control well (A570 nm−A600 nm)−blank well (A570 nm−A600 nm).
In addition, (A/B)×100 means a survival rate (%) of cells.
(B) Evaluations of toxicities of eight kinds of heavy metals except of cadmium to the STIP-1 cells were performed by the same way as described in the above (A).

In the next assay the test system is STIP-3 cells. The experiment in a line: Cytotoxic test using STIP-3 cells, Alamar Blue assay. The class given is cell-based, Bester (Huso huso X Acipenser ruthenus). The conditions noted are these: 20° C., 24 hours with specimen, then Alamar Blue for further 24 hours, read-out: EC50 (toxicity concentration value which effects on 50% of the cells).
Source text: as §1
Cells were cultured in a 96-well microtiter plate in a CO2 incubator (air atmosphere) at 20° C. until it became confluent. […]
Subsequently, by using a microplate reader, the light absorbance of each well was measured using two wavelengths (570 nm and 600 nm). […]
On the technique in general: Resazurin is reduced to fluorescent resorufin, in cell work by metabolically active cells.

The mark [1] stands for this setting: Huso huso, STIP-1 cells, 20° C., 24 hours with specimen, then Alamar Blue for further 24 hours.
Where [2] appears, read: STIP-1 cells, 20° C., 24 hours with specimen, then Alamar Blue for further 24 hours.

Like-named read-outs stand apart in the source and are kept apart here. A value given as a limit tells only on which side of the number the result lay.

Turning to `Oc1c(Cl)cc(Cl)c(Cl)c1Cl` [2,3,4,6-tetrachlorophenol], in the assay with STIP-1 cells (setting [1]), the EC50 stood at 9 µM. Take `Oc1cccc(Cl)c1Cl` [2,3-dichlorophenol]: the EC50 in the assay on STIP-1 cells (setting [1]) was determined as 80 µM.

In the case of `Oc1cc(Cl)c(Cl)cc1Cl` [2,4,5-trichlorophenol], the EC50 in the assay with STIP-1 cells (setting [1]) stood at 7 µM. In addition, the “toxicity ranking to the STIP-1 cells” value with STIP-1 cells is listed as “strongest toxicity”. With `Oc1ccc(Cl)cc1Cl` [2,4-dichlorophenol], in the assay with STIP-1 cells (setting [1]), the EC50 came to 55 µM. On the same count and under the same terms, to `Oc1cc(Cl)ccc1Cl` [2,5-dichlorophenol] belongs 56 µM; to `Oc1c(Cl)cccc1Cl` [2,6-dichlorophenol], 900 µM. On the same count and under the same terms, to `Oc1ccc(Cl)c(Cl)c1` [3,4-dichlorophenol] belongs 30 µM. On to `[Cl-].[Cl-].[Co+2]` [CoCl2.6H2O], for which the EC50 in the assay with STIP-1 cells (setting [2]) worked out at 2200 µM.

As for `[Cl][Cu][Cl]` [CuCl2.2H2O], in the assay on STIP-1 cells (setting [2]), the EC50 was found to be 1320 µM.

For the compound `O.O.O.O.[Cl][Mn][Cl]` [MnCl2.4H2O], in the assay with STIP-1 cells, the “toxicity to the STIP-1 cells more than that to the culture cells of other fish origins” value is recorded as “about 10 times” and the EC50 is 400 µM.

On to `[Cl][Ni][Cl]` [NiCl2.6H2O], for which, in the assay with STIP-1 cells, the EC50 is more than 10000 µM. For the compound `O=[N+]([O-])[O-].O=[N+]([O-])[O-].[Pb+2]` [Pb(NO3)2], the EC50 in the assay on STIP-1 cells (setting [2]) was 3300 µM.

Consider `Oc1c(Cl)c(Cl)c(Cl)c(Cl)c1Cl` [Pentachlorophenol], for which the EC50 in the assay on STIP-1 cells (setting [1]) was found to be 90 µM. As for `Oc1ccccc1` [Phenol], the EC50 with STIP-1 cells (Huso huso, 24 h) was 8600 µM. `O=S(=O)([O-])[O-].[Zn+2]` [ZnSO4.7H2O]: the EC50 with STIP-1 cells (setting [2]) is 400 µM.

Turning to `[Cl][Cd][Cl]` [cadmium, cadmium chloride], the EC50 is 89 µM in the assay on STIP-1 cells (setting [2]) and 100 µM in the assay with STIP-3 cells. Take `Oc1ccc(Cl)cc1` [p-chlorophenol]: in the assay with STIP-1 cells (setting [1]), the EC50 was 800 µM.

Consider `O=[N+]([O-])c1ccc(O)cc1` [p-nitrophenol], for which, in the assay on STIP-1 cells (setting [1]), the EC50 came out at 350 µM.

With HgCl2, the EC50 with STIP-1 cells is 85 µM. With Tributyl tin, the EC50 in the assay with STIP-1 cells (STIP-1 cells, 20° C., 24 hours with specimen, then Alamar Blue for further 24 hours, listed as tributyl tin) turned out to be 0.9 µM; in the assay on STIP-1 cells (setting [2]), 0.9 µM. Further, the “toxicity at a concentration lower than other heavy metals” value with STIP-1 cells (STIP-1 cells, compared with other heavy metals) is listed as “about 100 times”. In the assay on STIP-1 cells, the “toxicity ranking to the STIP-1 cells” value is “strongest toxicity”.
